The text below walks through data of US4060530A, “Clavulanic acid amides” (Beecham Group Limited, priority 1975, dated 1977).

In brackets after ≈: the same amount, converted by molar mass. Like-named read-outs stand apart in the source and are kept apart here.

Series [1] has as its system strains of Klebsiella aerogenes (A, E 70, 62). Kind of series: Growth inhibition of the test organisms of Table 8 by the esters alone. Conditions: read-out: concentration at which growth of the test organisms was not inhibited.
Experimental: The final dilution of the inoculum was 0.5 ×10^-2. The tray was incubated at 37° C overnight and a record made next morning of the end points of bacterial growth.
The next series relates to Bacillus subtilis A. The series is described as follows: MIC, method of Example 30 with 1/100 dilution of overnight broth (Example 46).
A further series has as its system Staph. aureus Oxford. Described as above.
Another series concerns Staph. aureus Russell. Described as above.
The test system of another series is Escherchia coli 10418. The series is described as above.
The subject of series [2] is Klebsiella aerogenes A. Kind of series: MIC / synergism, microtitre method (Example 42). Type of series: cell-based. Conditions: for Antibacterial synergism value, +5μg/ml. synergist (M.I.C. by method of Example 42): +5μg/ml. synergist (clavulanic acid sodium salt); for MIC: Klebsiella aerogenes, Alone (Tables 7, 8), Example 42 records M.I.C. in μg/ml, read-out: Antibacterial synergism value, Alone (M.I.C. by method of Example 42).

Series [3] relates to Klebsiella aerogenes E 70. Kind of series: MIC / synergism, microtitre method (Example 42). The series is classed as cell-based. Conditions: for Antibacterial synergism value, +5μg/ml. synergist (M.I.C. by method of Example 42): +5μg/ml. synergist (clavulanic acid sodium salt); for MIC: Klebsiella aerogenes.
The test system of the next series is Klebsiella aerogenes 62. Kind of series: MIC / synergism, microtitre method (Example 42). The series is classed as cell-based. Conditions: for Antibacterial synergism value, +5μg/ml. synergist (M.I.C. by method of Example 42): +5μg/ml. synergist (clavulanic acid sodium salt); for MIC: Klebsiella aerogenes, 62, Alone (Tables 7, 8), Example 42 records M.I.C. in μg/ml, read-out: Antibacterial synergism value, Alone (M.I.C. by method of Example 42).

Series [4] deals with Klebsiella aerogenes A. The series is described as follows: Growth inhibition / synergism. The series is classed as cell-based. Conditions: for MIC: Klebsiella aerogenes, agent alone, read-out: concentration in whose presence growth is not inhibited; for concentration inhibiting growth when 5 μg/ml. of clavulanic acid is also present: plus 5 μg/ml clavulanic acid.
Series [5] concerns Escherichia coli NCTC 10481. The series is described as follows: MIC / synergism, microtitre method (Example 42). Conditions: NCTC10481, agent alone, inoculum final dilution 0.5 ×10^-2, 37° C overnight, read-out: Minimum Inhibitory Concentration. Type of series: cell-based.
Another series concerns Serratia marcescens. Kind of series: MIC / synergism, microtitre method (Example 42). Type of series: cell-based. Conditions: agent alone, inoculum final dilution 0.5 ×10^-2, 37° C overnight, read-out: Minimum Inhibitory Concentration.
The subject of a further series is Staphylococcus aureus. Kind of series: MIC / synergism, microtitre method (Example 42). The series is classed as cell-based. Conditions: for MIC: Staphylococcus aureus, agent alone (Tables 5, 6), inoculum final dilution 0.5 ×10^-2, 37° C overnight, read-out: Minimum Inhibitory Concentration.
The subject of series [6] is Staphylococcus aureus Russell. The series is described as follows: Growth inhibition / synergism. As to conditions: for MIC: Staphylococcus aureus, agent alone, read-out: concentration in whose presence growth is not inhibited. The series is classed as cell-based.
The subject of series [7] is Staphylococcus aureus (Russell). The series is described as follows: M.I.C. synergism with clavulanic acid methyl ester (Example 32). The series is classed as cell-based.
The test system of a further series is Proteus mirabilis C889. Described as above. The series is classed as cell-based. As to conditions: plus 5 μg/ml clavulanic acid methyl ester.
Series [8] relates to Staphylococcus aureus (Russell). The series is described as follows: MIC / synergism, microtitre method (Example 42). The series is classed as cell-based.
The next series relates to Proteus mirabilis 899. Kind of series: microbe, parasite or virus in culture. Type of series: cell-based. As to conditions: method of Example 42.
The test system of another series is bacteria. The series is described as follows: Tests for antibacterial activity in broth (Example 32). Type of series: cell-based. Conditions: may be due to clavulanic acid liberated by hydrolysis.
Series [9] is described as follows: Hydrolysis of the methyl ester to clavulanic acid in pH 7 buffer. Type of series: physicochemical. As for the experimental part: The reaction was followed by paper chromatography (bioautographic system). Using the butanol/ethanol/water system to follow the reaction over a period of 2 hours the zone of the methyl ester at Rf 0.79 decreased in size as the zone of clavulanic acid at Rf 0.12 increased.

The target in series [10] is T1, β-lactamase produced by Escherichia coli JT4 (Escherichia coli, UniProt P62593).
T1 construct: This cell suspension was then disrupted in an MSE ultrasonic disintegrator; endogenous in cells; supernatant of sonicated cells
The series is described as follows: β-lactamase inhibition assay (Description 1). Type of series: biochemical.
Experimental: Solutions containing clavulanic acid (culture filtrate, samples from isolation procedure and the like) are incubated for 15 minutes with a β-lactamase preparation in 0.05M phosphate buffer at pH 7 and 37° C. During this time, enzyme inhibition or inactivation occurs. Substrate (benzylpenicillin) is then added and incubation continued for 30 minutes at 37° C. The amount of enzymic degradation of the substrate to penicilloic acid is determined by the hydroxylamine assay for penicillin. The amount of β-lactamase used is such as to give 75% hydrolysis of the benzylpenicillin in 30 minutes at 37° C.
The extent of hydrolysis is a reflection of the amount of enzyme remaining uninhibited.
The β-lactamase produced by Escherichia coli JT4 is used as an enzyme. […] Other similar R-factor controlled β-lactamases may be used if desired.
For use in the assay procedure, the supernatant is diluted in 0.005M phosphate buffer until it gives about 75% hydrolysis of a 1 mg/ml. solution of benzylpenicillin in 30 minutes at 37° C.
Suitable dilutions of the inhibitor preparation and β-lactamase solution are mixed and incubated at 37° C for 15 minutes (Test). […] The absorption of the final solutions is measured in an E.E.L. Colorimeter or a Spectrophotometer at 490 nm against the reagent blank.
The percentage inhibition of the β-lactamase is calculated as follows […]

[11] abbreviates: heavy inoculum, 1/100 dilution of overnight broth, Example 30 records MIC in μg/ml.
Setting [12] is: with 5 μg/ml of benzyl ester of clavulanic acid.
Setting [13] is: with 5 μg/ml of methyl ester of clavulanic acid.
Where [14] appears, read: plus 5 μg/ml clavulanic acid sodium salt, method of Example 42.

T1 sequence (P62593 24-286 limits assumed): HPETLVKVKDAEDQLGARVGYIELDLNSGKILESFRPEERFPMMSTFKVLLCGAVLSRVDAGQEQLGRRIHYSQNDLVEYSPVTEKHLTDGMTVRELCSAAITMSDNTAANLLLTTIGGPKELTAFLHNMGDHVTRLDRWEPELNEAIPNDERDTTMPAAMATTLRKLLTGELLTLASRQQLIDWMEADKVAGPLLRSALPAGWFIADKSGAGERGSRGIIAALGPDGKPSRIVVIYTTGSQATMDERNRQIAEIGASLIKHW
Experimental for Bacillus subtilis A: (§1) The cultures were incubated overnight and the points of bacterial growth recorded next morning by observing the turbidity of the culture.
Experimental for Escherchia coli 10418: as §1
Experimental for Staph. aureus Oxford: as §1
Experimental for Staph. aureus Russell: as §1

As to `O=C(OCc1ccccc1)[C@H]1/C(=C/CO)O[C@@H]2CC(=O)N21` [Benzyl ester, benzyl ester of 3-(β-hydroxyethylidine)-7-oxo-4-oxa-1-azabicyclo [3,2,0]heptane-2-carboxylic acid], the MIC in series [1] was over 100 µg/mL; against Bacillus subtilis A (Bacillus subtilis) it was 250 µg/mL (≈ 864 µM); in the series with Staph. aureus Oxford (Staphylococcus aureus), 62 µg/mL (≈ 214 µM); against Staph. aureus Russell (Staphylococcus aureus), 125 µg/mL (≈ 432 µM); in the series with Escherchia coli 10418, 125 µg/mL (≈ 432 µM).
In the case of `CC1(C)S[C@@H]2[C@H](NC(=O)Cc3ccccc3)C(=O)N2[C@H]1C(=O)O` [Benzylpenicillin, benzylpenicillin], the “Antibacterial synergism value, +5μg/ml. synergist (M.I.C. by method of Example 42)” value in the series with Klebsiella aerogenes A [2] came out at 7.8; in series [3], 15.6; in the series with Klebsiella aerogenes 62, 15.6. The MIC in the series on Klebsiella aerogenes A [2] was 250 µg/mL; in [3] (E70, read-out: Antibacterial synergism value, Alone (M.I.C. by method of Example 42)), 500 µg/mL; in the series with Klebsiella aerogenes 62, 250 µg/mL; in the series with Klebsiella aerogenes A [4] it was over 125 µg/mL. In addition, the “concentration inhibiting growth when 5 μg/ml. of clavulanic acid is also present” value in the series with Klebsiella aerogenes A [4] is on record as “less than 12.5 μg/ml”.
On to `CCCCCCCCCOC(=O)[C@H]1/C(=C/CO)O[C@@H]2CC(=O)N21` [Nonyl ester, Nonyl Clavulanate], for which the MIC against Bacillus subtilis A (Bacillus subtilis) was 31 µg/mL (≈ 95.3 µM); against Staph. aureus Oxford (Staphylococcus aureus) it was 31 µg/mL (≈ 95.3 µM); against Staph. aureus Russell (Staphylococcus aureus) it was 31 µg/mL (≈ 95.3 µM); against Escherchia coli 10418, 250 µg/mL (≈ 768 µM).
Take `O=C1OC(OC(=O)[C@H]2/C(=C/CO)O[C@@H]3CC(=O)N32)c2ccccc21` (stereo partly shown) [Phthalidyl ester, Clavulanic Acid Phthalide Esters]: the MIC was determined as 125 in the series with Bacillus subtilis A (setting [11]), 31 against Staph. aureus Oxford (setting [11]), 15 with Staph. aureus Russell (setting [11]) and 125 in the series with Escherchia coli 10418 (setting [11]).
With `CC(C)(C)C(=O)OCOC(=O)[C@H]1/C(=C/CO)O[C@@H]2CC(=O)N21` [Pivaloyloxymethyl ester, Pivaloyloxymethyl Clavulanate], the MIC worked out at 62 µg/mL (≈ 198 µM) in the series with Bacillus subtilis A (Bacillus subtilis), 31 µg/mL (≈ 98.9 µM) in the series with Staph. aureus Oxford (Staphylococcus aureus), 62 µg/mL (≈ 198 µM) against Staph. aureus Russell (Staphylococcus aureus) and 125 µg/mL (≈ 399 µM) with Escherchia coli 10418.
Consider `CC1(C)S[C@@H]2[C@H](NC(=O)[C@H](N)c3ccccc3)C(=O)N2[C@H]1C(=O)O` [ampicillin], for which the MIC in [5] was 1.8 µg/mL; in the series with Serratia marcescens, over 500 µg/mL; in the series with Staphylococcus aureus, 250 µg/mL; in [6], over 100 µg/mL. Moreover, the “Ampicillin 5 μg/ml of Benzyl Ester of clavulanic acid (M.I.C. by method of Example 42)” value with Klebsiella aerogenes A [2] (setting [12]) is on record as 1.9; in series [3] (setting [12]), 3.9; in the series with Klebsiella aerogenes 62 (setting [12]), 3.9. Also, the entries for the “Ampicillin 5 μg/ml of Methyl Ester of clavulanic acid (M.I.C. by method of Example 42)” value (with Klebsiella aerogenes A [2] (setting [13]); in series [3] (setting [13]); in the series with Klebsiella aerogenes 62 (setting [13])) were 1.9, 3.9 and 3.9, respectively. The “concentration inhibiting growth in the presence of 1 μg/ml. of clavulanic acid” value in series [6] (plus 1 μg/ml clavulanic acid) was “less than 10 μg/ml”. For the same compound, the “M.I.C. in the presence of 1.0 μg/ml. clavulanic acid methyl ester” value in series [7] (plus 1 μg/ml clavulanic acid methyl ester) is under 0.4 µg/mL. For the same compound, the “M.I.C. in the presence of 5 μg/ml. clavulanic acid methyl ester” value in the series on Proteus mirabilis C889 came out at 31 µg/mL.
For the compound `CC1(C)S[C@@H]2[C@H](NC(=O)C(C(=O)O)c3ccccc3)C(=O)N2[C@H]1C(=O)O` (stereo partly shown) [carbenicillin], the entries for the “Antibacterial synergism value, +5μg/ml. synergist (M.I.C. by method of Example 42)” value (in the series on Klebsiella aerogenes A [2]; in series [3]; in the series with Klebsiella aerogenes 62) were 7.8, 15 and 7.8, respectively. In addition, the MIC with Klebsiella aerogenes A [2] is 500 µg/mL; in [3] (E70, Alone (Tables 7, 8), Example 42 records M.I.C. in μg/ml, read-out: Antibacterial synergism value, Alone (M.I.C. by method of Example 42)), 500 µg/mL; in the series with Klebsiella aerogenes 62 it was 125 µg/mL; in the series with Klebsiella aerogenes A [4] it was over 125 µg/mL. Also, the “concentration inhibiting growth when 5 μg/ml. of clavulanic acid is also present” value with Klebsiella aerogenes A [4] is recorded as “less than 12.5 μg/ml”.
Take `O=C(Cc1cccs1)N[C@@H]1C(=O)N2C(C(=O)[O-])=C(C[n+]3ccccc3)CS[C@H]12` [cephaloridine]: the MIC in series [8] (Staphylococcus aureus, agent alone (Tables 5, 6), inoculum final dilution 0.5 ×10^-2, 37° C overnight, read-out: Minimum Inhibitory Concentration) stood at 3.1 µg/mL; in the series with Staphylococcus aureus, 15 µg/mL; in the series on Proteus mirabilis 899 (Proteus mirabilis, 899, agent alone, * = Tailing Point, read-out: Minimum Inhibitory Concentration), 62 µg/mL (≈ 149 µM); in series [7] (Staphylococcus aureus, antibiotic alone, read-out: minimum inhibitory concentration (M.I.C.)), 1.5 µg/mL. Further, the “Minimum Inhibitory Concentration in presence of 5μg/ml clavulanic acid sodium salt” value in series [8] (setting [14]) is under 0.03 µg/mL; in the series with Staphylococcus aureus (setting [14]), 3.7 µg/mL; with Proteus mirabilis 899 (plus 5 μg/ml clavulanic acid sodium salt), 7.5 µg/mL. In series [7], the “M.I.C. in the presence of 1.0 μg/ml. clavulanic acid methyl ester” value was under 0.03 µg/mL.
On to `COC(=O)[C@H]1/C(=C/CO)O[C@@H]2CC(=O)N21` [clavulanic acid methyl ester], for which the MIC is over 10 µg/mL in the series with Klebsiella aerogenes A [4] and over 100 µg/mL in series [1]. Moreover, in the series with bacteria, the “antibacterial activity in broth” value is recorded as “broad spectrum activity but of a lower order than shown by clavulanic acid”. In addition, the “conversion of the ester to clavulanic acid” value in series [9] (1 mg/ml, 37° C, 0.05M phosphate buffer pH 7, followed over 2 hours by paper chromatography) is given as “Slow conversion of the ester to clavulanic acid”. In series [9] (water buffered to pH7), the “hydrolysis to clavulanic acid” value is recorded as “slowly hydrolyze to clavulanic acid”.
Turning to `O=C(O)[C@H]1/C(=C/CO)O[C@@H]2CC(=O)N21` [clavulanic acid, Z-(2R,5R)-3-(β-hydroxyethylidene)-7-oxo-4-oxa-1-azabicyclo[3,2,0]heptane-2-carboxylic acid], the “mode of inhibition of the β-lactamase of Escherichia coli” value in series [10] is “progressively and irreversibly inhibits”. In addition, the MIC in series [6] is over 5 µg/mL.
